Results taken from patent US6632981B1, “DNA sequences encoding polypeptides having beta-1,3-glucanase activity” (Novartis Finance Corporation, priority 1988, dated 2003).

How the values were obtained:
[1] = system: PR-1 promoter-LUC gene fusion; assay: Chemical induction of the Arabidopsis PR-1 promoter-LUC gene fusion; assay type: in vivo
Description: pAtPR1-R was cleaved with XhoI and SacI and transferred to SalI/SacI cleaved pCIB200 to create a binary vector construction (pAtPR1-S) suitable for Arabidopsis transformation (see example 28). pAtPR1-S was then transferred to Agrobacterium tumefaciens strain A136/pCIB542 for transfer to Arabidopsis Dijon-0 using the method described by Wen-jun and Forde, Nucl. Acids Res. 17: 8385-8386 (1989). T2 or […] lines carrying the PR1-LUC transgene in the homozygous state were generated for chemical induction analysis.
Leaves of transgenic Arabidopsis lines carrying the PR-1 promoter-LUC gene fusion were treated by spraying with 0.15 g/ml INA (isonicotinic acid) for 48 h. Five days later, sprayed leaves were analyzed for luciferase activity using the Promega Luciferase Assay System (Cat. #E 1500). […] In other assays, luciferase activity was measured by imaging lines for bioluminescence using intensified cameras (VIM) and photon-counting image processors (ARGUS-50 or ARGUS-100) from Hamamatsu Photonic Systems (Bridgewater, N.J.). Leaves were sprayed with INA and subsequently with a 5 mM solution of D-luciferin (Analytical Bioluminescence Laboratories, San Diego, Calif.) 24 h before and then immediately before imaging.

[2] = system: chemically regulatable chimeric genes coding for GUS, AHAS or BT; assay: Primer extension assay for mRNA of chemically regulatable chimeric genes; assay type: in vivo; details: callus or regenerated plant material from transgenic plants; level proportional to amount of regulator applied
Description: 50 g of total RNA is lyophilized in a 500 l Eppendorf tube. The RNA is resuspended in 30 l of radiolabeled probe solution and heated to 70′ C. for 10 minutes. The tube is slowly cooled to 37° C. and allowed to incubate overnight. Without removing the tube from the 37° C. water bath, 2 l of 10×reverse-transcriptase buffer (500 mM Tris-HCl, pH 7.5, 400 mM KCl, 30 mM MgCl2), 1 l 5 mg/ml bovine serum albumin, 5 l 100 mM dithiothreitol, 5 l 10×dNTPs (10 mM of each dNTP in H2O), 3 l H 20, 2 l RNasin (80 units), and 2 l reverse transcriptase (400 units) are added and the reaction is incubated at 37° C. for 30 minutes. To stop the reaction, 5 l of 3 M sodium acetate, pH 5, and 150 l absolute ethanol are added. The tube is left at −20° C. for 30 minutes, the precipitate is collected by centrifugation, washed with 80% ethanol and allowed to air-dry. The precipitate is resuspended in 10-20 l of loading dye (90% formamide, 0.05% bromophenol blue, 0.05% xylene cyanol, 1 mM EDTA) and the extension products are separated on a 6% sequencing gel (Maniatis, T. et al., supra). Extension products are visualized by autoradiography.
Plant materials induced and harvested as in Examples 140 to 142 are assayed for the induction of mRNA species by the isolation of RNA and the primer extension assay as described in Example 6.
The level of mRNA is proportional to the amount of regulator applied.

[3] = system: salicylic acid; assay: Antagonism of the salicylic acid cell signal on exogenous application to a plant; assay type: in vivo; details: applied exogenously to a plant
Description: Those skilled in the art will appreciate that other means can be employed to achieve the same effect. For instance, a second method involves the expression or overexpression in a transformed plant of a gene encoding an enzyme which catalyzes the modification; e.g., degradation, of a metabolic precursor of the signal molecule so that the plant is rendered incapable of producing the signal molecule. A third method involves the external application to the plant of antagonists of the target cell signal. […] Instead, inhibition of the cell signal response is effected. […] See, Yang and Hoffman, Ann. Rev. Plant Physiol. 35:155-189 (1984).

[4] = system: PR-1a promoter fused to a gene encoding the delta-endotoxin of Bacillus thuringensis; assay: Chemical regulation of PR-1a promoter/Bacillus thuringiensis delta-endotoxin gene in nahG-expressing plants; assay type: in vivo; details: progeny of PR-1a promoter/delta-endotoxin plants crossed to nahG-3, -8 and -10
[5] = system: PR-1a promoter fused to the GUS reporter gene; assay: Chemical regulation of PR-1a promoter/GUS in nahG-expressing plants; assay type: in vivo; details: progeny of PR-1a promoter/GUS plants crossed to nahG-3, -8 and -10
Description: Consequently, the chemical regulation of the PR-1a gene promoter can be utilized without the activation of the endogenous cell signal SA.

[6] = system: SAR response; assay: Chemical induction of SAR in nahG-expressing plants; assay type: in vivo, Nicotiana tabacum cv Xanthi-nc; details: plants of lines nahG-3, -8 and -10 (blocked in SAR response to disease infection) treated with the inducing chemical
Description: Three lines, nahG-3, -8 and -10, were shown above to express high levels of nahG mRNA and salicylate hydroxylase protein, and to be blocked in their SAR response to disease infection.

O=C(O)c1ccncc1 [INA, isonicotinic acid]
bioluminescence (imaging, photon counting) ([1]; compared to water-treated controls, D-luciferin 5 mM): strongly induced bioluminescence | luciferase activity, induction over controls ([1]; leaves sprayed with 0.15 g/ml for 48 h, analyzed five days later, Promega Luciferase Assay System): 144 fold

CCC(C)N(N)C(=O)c1cccc2nnsc12 (centres unmarked) [benzo-1,2,3-thiadiazole-7-carboxylic acid N-sec-butylhydrazide]
level of mRNA of the chimeric gene (GUS, AHAS or BT primer), primer extension assay [2]: elevated levels of mRNA

O=C(O)c1cc(Cl)nc(Cl)c1 [2,6-dichloroisonicotinic acid]
level of mRNA of the chimeric gene (GUS, AHAS or BT primer), primer extension assay [2]: elevated levels of mRNA

CC[Si](CC)(CC)c1ccccc1C(=O)O [o-triethylsilyl benzoic acid]
effect on the salicylic acid cell signal [3]: antagonistic effect

O=C(O)c1cccc2nnsc12 [benzo-1,2,3-thiadiazole-7-carboxylic acid]
endotoxin gene expression [4]: express the endotoxin gene | GUS expression [5]: express GUS | SAR response [6]: shown to possess the SAR response | level of mRNA of the chimeric gene (GUS, AHAS or BT primer), primer extension assay [2]: elevated levels of mRNA

CCCOC(=O)c1cccc2nnsc12 [n-propyl benzo-1,2,3-thiadiazole-7-carboxylate]
level of mRNA of the chimeric gene (GUS, AHAS or BT primer), primer extension assay [2]: elevated levels of mRNA

O=C(OCc1ccccc1)c1cccc2nnsc12 [benzyl benzo-1,2,3-thiadiazole-7-carboxylate]
level of mRNA of the chimeric gene (GUS, AHAS or BT primer), primer extension assay [2]: elevated levels of mRNA
